Test results from ChEMBL document CHEMBL4406848, “Novel water soluble BODIPY compounds: Synthesis, photochemical, DNA interaction, topoisomerases inhibition and photodynamic activity properties” (Eur J Med Chem, 2019).
One block for each molecule: values may come before it. The source made the active and inactive calls. The calls are words filed in the database; no cut-off is given here.

Experiments:
[1] = system: HCT-116; experiment: Induction of apoptosis in human HCT116 cells assessed as necrotic cells at 5 uM incubated for 24 hrs in presence of irradiation by annexin V FITC and propidium iodide based flow cytometry (reference value: 0.2 %); assay type: functional
[2] = system: Calf thymus DNA; experiment: Binding affinity to calf thymus DNA assessed as percentage of hypochromicity incubated for 10 mins by UV-visible spectrophotometry; assay type: nucleic-acid assay; settings: Bos taurus
[3] = system: HCT-116; experiment: Phototoxicity against human HCT116 cells assessed as cell viability at 0.5 uM incubated for 24 hrs under 17.5 mW/cm2 light irradiation by MTT assay relative to control; assay type: functional; settings: HCT-116, light or radiation study, read-out: Activity
[4] = target: T1, DNA topoisomerase 1 (Homo sapiens) (UniProt P11387); experiment: Inhibition of recombinant human topoisomerase 1 at 50 uM incubated for 1 hr by ethidium bromide staining based agarose gel electrophoresis method relative to control
T1 sequence (whole entry): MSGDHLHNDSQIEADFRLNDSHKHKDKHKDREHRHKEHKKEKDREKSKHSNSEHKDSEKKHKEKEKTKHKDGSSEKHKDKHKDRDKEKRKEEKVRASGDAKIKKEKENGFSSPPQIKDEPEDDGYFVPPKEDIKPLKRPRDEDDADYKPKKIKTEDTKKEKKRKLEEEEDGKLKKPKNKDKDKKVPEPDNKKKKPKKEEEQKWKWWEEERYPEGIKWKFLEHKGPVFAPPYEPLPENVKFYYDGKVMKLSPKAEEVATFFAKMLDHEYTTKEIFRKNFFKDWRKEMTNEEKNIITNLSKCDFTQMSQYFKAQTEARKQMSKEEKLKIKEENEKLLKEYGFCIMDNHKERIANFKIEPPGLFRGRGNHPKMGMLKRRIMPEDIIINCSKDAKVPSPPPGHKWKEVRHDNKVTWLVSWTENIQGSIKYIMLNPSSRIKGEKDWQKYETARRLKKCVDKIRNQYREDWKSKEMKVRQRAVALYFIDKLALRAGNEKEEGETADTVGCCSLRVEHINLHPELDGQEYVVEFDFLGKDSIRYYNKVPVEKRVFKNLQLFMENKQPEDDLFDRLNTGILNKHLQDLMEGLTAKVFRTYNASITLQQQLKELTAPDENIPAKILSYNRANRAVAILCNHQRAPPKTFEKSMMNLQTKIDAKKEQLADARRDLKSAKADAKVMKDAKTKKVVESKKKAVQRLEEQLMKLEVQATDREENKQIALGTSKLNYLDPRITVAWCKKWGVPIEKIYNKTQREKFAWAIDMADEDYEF

[5] = system: DNA; experiment: Induction of Escherichia coli plasmid pBR322 DNA cleavage assessed as increase in nicked circular DNA in presence of light irradiation and incubated for 1 hr by agarose gel electrophoresis; assay type: nucleic-acid assay
[6] = system: DNA; experiment: Induction of Escherichia coli plasmid pBR322 DNA cleavage assessed as increase in nicked circular DNA at 50 uM in presence of light irradiation and incubated for 1 hr by agarose gel electrophoresis; assay type: nucleic-acid assay
[7] = system: DNA; experiment: Induction of Escherichia coli plasmid pBR322 DNA cleavage assessed as decrease in supercoiled DNA at 50 uM in presence of light irradiation and incubated for 1 hr by agarose gel electrophoresis; assay type: nucleic-acid assay
[8] = Induction of singlet oxygen generation in TBS solution assessed as singlet oxygen quantum yield by measuring reduction in ADMA irradiated with 650 nanometer laser light; assay type: functional
[9] = system: DNA; experiment: Induction of Escherichia coli plasmid pBR322 DNA cleavage assessed as linear form at 50 uM irradiated with light and incubated for 1 hr by agarose gel electrophoresis; assay type: nucleic-acid assay
[10] = target: T1, DNA topoisomerase 1 (Homo sapiens); experiment: Inhibition of recombinant human topoisomerase 1 at 25 uM incubated for 1 hr by ethidium bromide staining based agarose gel electrophoresis method relative to control
[11] = target: T2, DNA topoisomerase II (Homo sapiens) (UniProt P11388+Q02880); experiment: Inhibition of recombinant human topoisomerase 2 at 12.5 uM incubated for 1 hr by ethidium bromide staining based agarose gel electrophoresis method relative to control; assay type: protein assay
[12] = target: T1, DNA topoisomerase 1 (Homo sapiens); experiment: Inhibition of recombinant human topoisomerase 1 assessed as linear DNA at 50 uM incubated for 1 hr by ethidium bromide staining based agarose gel electrophoresis method relative to control
[13] = system: HCT-116; experiment: Induction of apoptosis in human HCT116 cells assessed as viable cells at 5 uM incubated for 24 hrs in presence of irradiation by annexin V FITC and propidium iodide based flow cytometry (reference value: 94.8 %); assay type: functional; settings: HCT-116, light or radiation study, read-out: Activity
[14] = system: Calf thymus DNA; experiment: Competitive binding affinity to calf thymus DNA assessed as binding constant in presence of ethidium bromide incubated for 10 mins by UV-visible spectrophotometry; assay type: nucleic-acid assay; settings: Bos taurus
[15] = system: HCT-116; experiment: Induction of apoptosis in human HCT116 cells assessed as early apoptotic cells at 5 uM incubated for 24 hrs in presence of irradiation by annexin V FITC and propidium iodide based flow cytometry (reference value: 3.4 %); assay type: functional
[16] = target: T2, DNA topoisomerase II (Homo sapiens); experiment: Inhibition of recombinant human topoisomerase 2 assessed as supercoiled DNA at 25 uM incubated for 1 hr by ethidium bromide staining based agarose gel electrophoresis method relative to control; assay type: protein assay; set-up: scale not given: the % may be the effect or the level left
[17] = system: HCT-116; experiment: Induction of apoptosis in human HCT116 cells assessed as late apoptotic cells at 50 uM incubated for 24 hrs in presence of irradiation by annexin V FITC and propidium iodide based flow cytometry (reference value: 1.6 %); assay type: functional
[18] = target: T1, DNA topoisomerase 1 (Homo sapiens); experiment: Inhibition of recombinant human topoisomerase 1 assessed as supercoiled pBR322 DNA at 12.5 uM incubated for 1 hr by ethidium bromide staining based agarose gel electrophoresis method relative to control; set-up: scale not given: the % may be the effect or the level left
[19] = system: DNA; experiment: Induction of Escherichia coli plasmid pBR322 DNA cleavage assessed as increase in nicked circular DNA at 6.25 to 50 uM in presence of light irradiation and incubated for 1 hr by agarose gel electrophoresis; assay type: nucleic-acid assay
[20] = system: HCT-116; experiment: Induction of apoptosis in human HCT116 cells assessed as early apoptotic cells at 50 uM incubated for 24 hrs in presence of irradiation by annexin V FITC and propidium iodide based flow cytometry (reference value: 3.4 %); assay type: functional
[21] = system: DNA; experiment: Induction of Escherichia coli plasmid pBR322 DNA cleavage assessed as increase in nicked circular DNA at 3.125 uM in presence of light irradiation and incubated for 1 hr by agarose gel electrophoresis relative to control; assay type: nucleic-acid assay
[22] = system: DNA; experiment: Induction of Escherichia coli plasmid pBR322 DNA cleavage assessed as decrease in supercoiled DNA at 6.25 to 50 uM in presence of light irradiation and incubated for 1 hr by agarose gel electrophoresis relative to control; assay type: nucleic-acid assay; set-up: scale not given: the % may be the effect or the level left
[23] = target: T2, DNA topoisomerase II (Homo sapiens); experiment: Inhibition of recombinant human topoisomerase 2 assessed as supercoiled DNA at 12.5 uM incubated for 1 hr by ethidium bromide staining based agarose gel electrophoresis method relative to control; assay type: protein assay; set-up: scale not given: the % may be the effect or the level left
[24] = target: T1, DNA topoisomerase 1 (Homo sapiens); experiment: Inhibition of recombinant human topoisomerase 1 assessed as supercoiled pBR322 DNA at 50 uM incubated for 1 hr by ethidium bromide staining based agarose gel electrophoresis method relative to control; set-up: scale not given: the % may be the effect or the level left
[25] = system: HCT-116; experiment: Induction of apoptosis in human HCT116 cells assessed as viable cells at 50 uM incubated for 24 hrs in presence of irradiation by annexin V FITC and propidium iodide based flow cytometry (reference value: 94.8 %); assay type: functional; settings: HCT-116, light or radiation study, read-out: Activity
[26] = system: HCT-116; experiment: Induction of apoptosis in human HCT116 cells assessed as necrotic cells at 50 uM incubated for 24 hrs in presence of irradiation by annexin V FITC and propidium iodide based flow cytometry (reference value: 0.2 %); assay type: functional

- Activity [2]: 47.8%
- inhibition [4]: 89%
- Activity [5]: Dose-dependent effect
- Activity [6]: inactive
- Activity [7]: inactive
- Activity [9]: inactive
- inhibition [10]: 88.6%
- inhibition [11]: 54.6%
- inhibition [12]: 100%
- Activity [14]: inactive
Compound: CC1=CC(/C=C/c2ccc(OCCCc3ccc[n+](C)c3)cc2)=[N+]2C1=C(c1ccc(OCCCc3ccc[n+](C)c3)cc1)c1c(C)cc(/C=C/c3ccc(OCCCc4ccc[n+](C)c4)cc3)n1[B-]2(F)F.[I-].[I-].[I-]
- Activity [1]: 10.7%
- viability at 0.5 µM [3]: 100%
- Activity [8]: 0.21
- viability at 5 µM [13]: 23%
- Activity [15]: 35.8%

- Activity [2]: 46.7%
- Activity [16]: 81.8%
- inhibition [4]: 89.9%
- Activity [18]: 64.2%
- Activity [19]: Active
- inhibition [10]: 89.4%
- Activity [21]: 41.5%
- inhibition [11]: 56.4%
- Activity [22]: 100%
- Activity [23]: 77.5%
- Activity [24]: 69.5%
Compound: CC1=CC(/C=C/c2ccc(OCCCc3ccc[n+](C)c3)c(OCCCc3ccc[n+](C)c3)c2)=[N+]2C1=C(c1ccc(OCCCc3ccc[n+](C)c3)c(OCCCc3ccc[n+](C)c3)c1)c1c(C)cc(/C=C/c3ccc(OCCCc4ccc[n+](C)c4)c(OCCCc4ccc[n+](C)c4)c3)n1[B-]2(F)F.[I-].[I-].[I-].[I-].[I-].[I-]
- viability at 0.5 µM [3]: 100%
- Activity [17]: 1.4%
- Activity [8]: 0.3
- Activity [20]: 4.8%
- viability at 50 µM [25]: 93.7%
- Activity [26]: 0.2%
